Results as given in patent publication US20210330611A1, “THERAPY FOR NEUROLOGICAL DISEASES/DISORDERS” (priority 2020, published 2021).
pIC50: −log10 of the molar value. Read-outs that look alike come from different tables or passages of the source.

Legend:
Format in all cases: cell-based, rat
[1] = test system: fibrin-induced microglia activation; assay: Image-based assay of fibrin-induced microglia activation (HTS and dose response); conditions: for inhibition at 10 µM / pIC50: Rattus norvegicus, Microglia; for inhibition at 10 µM: read-out: Fibrin % inhibition; for pIC50: Table 7, read-out: fib_IC50
[2] = test system: LPS-induced microglia activation; assay: Image-based assay of LPS-induced microglia activation (HTS and dose response)
[3] = test system: fibrin- and LPS-induced microglia activation; assay: cells; conditions: for Activity: Table 7, fib = fibrin, LPS, tox = toxicity
[4] = primary microglia HTS, fibrin stimulation, increased cell size (>800 μm^2) as marker of activation
[5] = quadrant by fibrin and LPS inhibition in HTS of 1907 compounds
[6] = Rattus norvegicus, Microglia, 48 h, read-out: LPS % inhibition
[7] = Rattus norvegicus, Microglia, 48 h, primary microglia HTS, LPS stimulation; increased cell size (>800 μm^2) as marker of activation; read-out: LPS % inhibition
[8] = primary microglia HTS, fibrin stimulation, compounds at 10 μM
[9] = Rattus norvegicus, Microglia, primary microglia HTS, LPS stimulation, compounds at 10 μM; read-out: LPS % inhibition
[10] = quadrant by fibrin and LPS inhibition, HTS at 10 μM
[11] = primary microglia HTS, fibrin stimulation, cell size >800 μm2 as marker of activation
[12] = Rattus norvegicus, Microglia, 48 h; read-out: LPS % inhibition
[13] = classification by fibrin and LPS inhibition in HTS
[14] = Rattus norvegicus, Microglia, Table 7; read-out: LPS_IC50

Compound | Quadrant (FIG. 5b) [3, 5] | inhibition at 10 µM [1] [%] | inhibition at 10 µM [2, 6] [%] | Quadrant (FIG. 5b) [3] | further results
C#CC(C)(O)CC (centres unmarked) [Meparfylon] | Q4 | – | – | – | Fibrin % inhibition [1, 4]: −49%; LPS % inhibition ([2]; primary microglia HTS, LPS stimulation; increased cell size (>800 μm^2) as marker of activation): 3%
CN1CCN2c3ccccc3Cc3ccccc3C2C1 (centres unmarked) [Mianserin] | – | -18 | 17 | Q4 | –
CN(C)c1ccc(O)c2c1C[C@H]1C[C@H]3[C@H](N(C)C)C(O)=C(C(N)=O)C(=O)[C@@]3(O)C(O)=C1C2=O [Minocycline] | Q4 | – | – | – | inhibition at 10 µM [1, 4]: -6%; inhibition at 10 µM [2, 7]: 16%
Nc1cc(N2CCCCC2)nc(N)[n+]1[O-] [Minoxidil] | Q4 | – | – | – | inhibition at 10 µM [1, 4]: -5%; inhibition at 10 µM [2, 7]: 9%
COc1ccc2cc([C@H](C)C(=O)O)ccc2c1 [Naproxen] | – | -25 | 15 | Q4 | –
O=C(O)c1cccnc1 [Niacin] | – | 8 | 13 | Q4 | –
COC(=O)C1=C(C)NC(C)=C(C(=O)OC)C1c1ccccc1[N+](=O)[O-] [Nifedipine] | – | -36 | 2 | Q4 | –
CS(=O)(=O)Nc1ccc([N+](=O)[O-])cc1Oc1ccccc1 [Nimesulide] | – | -19 | 13 | Q4 | –
C#C[C@]1(O)CC[C@H]2[C@@H]3CCC4=C(CCC(=O)C4)[C@H]3CC[C@@]21C [Norethynodrel] | – | 1 | 10 | Q4 | –
C#CC1(O)CC[C@H]2[C@@H]3CCC4=CC(=O)CC[C@@H]4[C@H]3CC[C@@]21CC (some centres unmarked) [Norgestrel] | Q4 | – | – | – | inhibition at 10 µM [1, 4]: 4%; inhibition at 10 µM [2, 7]: 22%
Cc1nccn1CC1CCc2c(c3ccccc3n2C)C1=O (centres unmarked) [Ondansetron] | Q4 | – | – | – | inhibition at 10 µM [1, 8]: 106%; inhibition at 10 µM [1, 4]: -6%; inhibition at 10 µM [2, 7]: 14%; inhibition at 10 µM [2, 9]: 92%; Quadrant (FIG. 5b) [3, 10]: Q2
CC(C)(CO)[C@@H](O)C(=O)NCCC(=O)NCCSSCCNC(=O)CCNC(=O)[C@H](O)C(C)(C)CO [Pantethine] | – | -53 | 7 | Q4 | –
CC(N)C(O)c1ccccc1 (centres unmarked) [Phenylpropanolamine] | – | -2 | -6 | Q4 | –
CC(N/C(=N\C#N)Nc1ccncc1)C(C)(C)C (centres unmarked) [Pinacidil] | – | – | – | – | inhibition at 10 µM [1, 11]: 15%; inhibition at 10 µM [2, 12]: 26%; Quadrant (FIG. 5b) [3, 13]: Q4
O=C(CCBr)N1CCN(C(=O)CCBr)CC1 [Pipobroman] | – | -28 | 0 | Q4 | –
COc1cc([C@@H]2c3cc4c(cc3[C@H](O)[C@H]3COC(=O)[C@H]23)OCO4)cc(OC)c1OC [Podofilox, reference compound] | – | – | – | – | pIC50 [1]: 7.85; pIC50 [2, 14]: 8.70; Quadrant (FIG. 5b) ([3]; Table 2, screen at 10 μM): Q2; Activity [3]: fib/LPS
C[C@]12CC[C@H](O)CC1=CC[C@@H]1[C@@H]2CC[C@]2(C)C(=O)CC[C@@H]12 [Prasterone] | – | – | – | – | inhibition at 10 µM [1, 11]: 1%; inhibition at 10 µM [2, 12]: 15%; Quadrant (FIG. 5b) [3, 13]: Q4
C[C@]12C=CC(=O)C=C1CC[C@@H]1[C@@H]2[C@@H](O)C[C@@]2(C)[C@H]1CC[C@]2(O)C(=O)CO [Prednisolone, reference compound] | Q2 | – | – | – | pIC50 [1]: 8.70; inhibition at 10 µM [1, 8]: 97%; inhibition at 10 µM [1, 4]: 114%; inhibition at 10 µM [2, 7]: 100%; pIC50 [2, 14]: 8.70; inhibition at 10 µM [2, 9]: 87%; Quadrant (FIG. 5b) ([3]; Table 2, screen at 10 μM): Q2; Activity [3]: fib/LPS; Quadrant (FIG. 5b) [3, 10]: Q2
CC(C)C[C@H](CN)CC(=O)O [Pregabalin] | – | -5 | 1 | Q4 | –
